Results reported in US6407288B1, “Naphthylsalicylanilides as antimicrobial and antiinflammatory agents” (The Research Foundation of State University of New York, priority 2000, dated 2002).
≈ marks a conversion by molar mass, not a printed value.

Columns and labels:
P. acnes 6922 = test: MIC microdilution, gram positive; format: cell-based, Propionibacterium acnes; settings: Table 1, Gram Positive; for MIC: Cutibacterium acnes, 6922
Description: (§1) The MIC's for the compounds were determined by a modified microdilution tube dilution method described in “Methods for Dilution Antimicrobial Susceptibility Tests for Bacteria that Grow Aerobically” (National Committee for Clinical Laboratory Standards Approved Standards, 1997, NCCLS document M7-A4). In general the modifications were made because of the unique growth requirements for the fastidious oral organisms and for those bacteria that require anaerobic conditions. Reference is also made to “Methods for Antimicrobial Susceptibility of Anaerobic Bacteria” (National Committee for Clinical Laboratory Standards Approved Standards, 1997, NCCLS document M11-A4). Briefly, the methods were as follows. Cultures were grown for 18-24hrs (aerobic bacteria) or 48-72 hrs (anaerobic bacteria) in the appropriate medium. For aerobic bacteria full strength brain heart infusion medium (BHI, Difco) was used. For anaerobic bacteria, half strength BHI (18.5 g/L) was supplemented by adding yeast extract (10 g/L), hemin (0.29 mL of a stock solution containing 0.1 g/200 mL dH2O) and menadione (15 mL of a stock solution containing 0.15 mL in 30 mL 95% EtOH) was used. Initial cultures were diluted to approximately 1×10^8 CFU/mL for use as an inoculum. Each assay received 10 μL of the inoculum. The drugs were prepared from a stock solution contained in dimethyl sulfoxide (DMSO) and diluted into the culture medium. Final concentrations of the drugs ranged from 50 to 0.05 μg/assay. The tests were run in duplicate and were incubated appropriately with regard to oxygen requirements for 24 to 48 hrs as required. Anaerobic incubation was an atmosphere of 5% CO2, 10% H2, with the balance N2. The lowest concentration of an antimicrobial agent at which no visible growth is noted was referred to as the MIC.

A. viscosus = test: MIC microdilution, gram positive; format: cell-based, Actinomyces viscosus; settings: Table 2, Gram Positive; for MIC: Actinomyces viscosus
Description: as §1

S. aureus = test: MIC microdilution, gram positive; format: cell-based, Staphlococcus aureus; settings: Table 2, Gram Positive; for MIC: Staphylococcus aureus
Description: The MIC's for the compounds were determined by a modified microdilution tube dilution method described in “Methods for Dilution Antimicrobial Susceptibility Tests for Bacteria that Grow Aerobically” (National Committee for Clinical Laboratory Standards Approved Standards, 1997, NCCLS document M7-A4). In general the modifications were made because of the unique growth requirements for the fastidious oral organisms and for those bacteria that require anaerobic conditions. Reference is also made to “Methods for Antimicrobial Susceptibility of Anaerobic Bacteria” (National Committee for Clinical Laboratory Standards Approved Standards, 1997, NCCLS document M11-A4).
Briefly, the methods were as follows. Cultures were grown for 18-24hrs (aerobic bacteria) or 48-72 hrs (anaerobic bacteria) in the appropriate medium. For aerobic bacteria full strength brain heart infusion medium (BHI, Difco) was used. For anaerobic bacteria, half strength BHI (18.5 g/L) was supplemented by adding yeast extract (10 g/L), hemin (0.29 mL of a stock solution containing 0.1 g/200 mL dH2O) and menadione (15 mL of a stock solution containing 0.15 mL in 30 mL 95% EtOH) was used. Initial cultures were diluted to approximately 1×10^8 CFU/mL for use as an inoculum. Each assay received 10 μL of the inoculum. The drugs were prepared from a stock solution contained in dimethyl sulfoxide (DMSO) and diluted into the culture medium. Final concentrations of the drugs ranged from 50 to 0.05 μg/assay. The tests were run in duplicate and were incubated appropriately with regard to oxygen requirements for 24 to 48 hrs as required. Anaerobic incubation was an atmosphere of 5% CO2, 10% H2, with the balance N2. The lowest concentration of an antimicrobial agent at which no visible growth is noted was referred to as the MIC.
This embodiment describes the sensitivity of various staphylococcus strains to the compounds of the present invention. The staphylococcus species R is a strain 00-045-1209 from the Children's Hospital in Buffalo. It was isolated from the peritoneal cavity (fluid culture) of an individual. It was coagulase negative. The sensitivity of this strain was tested agaisnt several known antibiotics.

S. mutans = test: MIC microdilution, gram positive; format: cell-based, Streptococcus mutans; settings: Table 1, Gram Positive; for MIC: Streptococcus mutans
Description: as §1

P. ging 381 = test: MIC microdilution, gram negative; format: cell-based, Porphyromonas gingivalis; settings: for MIC: Porphyromonas gingivalis, 381
Description: The MIC's for the compounds were determined by a modified microdilution tube dilution method described in “Methods for Dilution Antimicrobial Susceptibility Tests for Bacteria that Grow Aerobically” (National Committee for Clinical Laboratory Standards Approved Standards, 1997, NCCLS document M7-A4). In general the modifications were made because of the unique growth requirements for the fastidious oral organisms and for those bacteria that require anaerobic conditions. Reference is also made to “Methods for Antimicrobial Susceptibility of Anaerobic Bacteria” (National Committee for Clinical Laboratory Standards Approved Standards, 1997, NCCLS document M11-A4). Briefly, the methods were as follows. Cultures were grown for 18-24hrs (aerobic bacteria) or 48-72 hrs (anaerobic bacteria) in the appropriate medium. For aerobic bacteria full strength brain heart infusion medium (BHI, Difco) was used. For anaerobic bacteria, half strength BHI (18.5 g/L) was supplemented by adding yeast extract (10 g/L), hemin (0.29 mL of a stock solution containing 0.1 g/200 mL dH2O) and menadione (15 mL of a stock solution containing 0.15 mL in 30 mL 95% EtOH) was used. Initial cultures were diluted to approximately 1×10^8 CFU/mL for use as an inoculum. Each assay received 10 μL of the inoculum. The drugs were prepared from a stock solution contained in dimethyl sulfoxide (DMSO) and diluted into the culture medium. Final concentrations of the drugs ranged from 50 to 0.05 μg/assay. The tests were run in duplicate and were incubated appropriately with regard to oxygen requirements for 24 to 48 hrs as required. Anaerobic incubation was an atmosphere of 5% CO2, 10% H2, with the balance N2. The lowest concentration of an antimicrobial agent at which no visible growth is noted was referred to as the MIC. […] The method used was the same as described in Example 1.

P. acnes 11828 = test: MIC microdilution, gram positive; format: cell-based, Propionibacterium acnes; settings: Cutibacterium acnes, 11828; Table 1, Gram Positive
Description: as §1

S. sanguis = test: MIC microdilution, gram positive; format: cell-based, Streptococcus sanguis; settings: Streptococcus; Table 1, Gram Positive
Description: as §1

S.salivarius = test: MIC microdilution, gram positive; format: cell-based, Streptococcus salivarius; settings: Streptococcus salivarius; Table 1, Gram Positive
Description: as §1

[1] = Table 3 printed a second time, Gram Negative

| Compound | MIC (P. acnes 6922) | MIC (A. viscosus) | MIC (S. aureus) | MIC (S. mutans) | MIC (P. ging 381; Table 3, Gram Negative) | MIC P. ging 381 (P. ging 381; [1]) | MIC P. acnes 6922 (P. acnes 6922) | MIC A. viscosus (A. viscosus) | MIC S. aureus (S. aureus) | MIC S. mutans (S. mutans) | MIC P. ging 381 (P. ging 381; Table 3, Gram Negative) | MIC (P. acnes 11828) | MIC (S. sanguis) | MIC (S.salivarius) |
| --- | --- | --- | --- | --- | --- | --- | --- | --- | --- | --- | --- | --- | --- | --- |
| O=C(Nc1cc(C(F)(F)F)cc(C(F)(F)F)c1)c1cc(C(=O)c2cccc3ccccc23)ccc1O [NAmF2] | 0.4 µg/mL (≈ 0.795 µM) | 0.8 µg/mL (≈ 1.59 µM) | > 50 µg/mL | 1.6 µg/mL (≈ 3.18 µM) | 0.2 µg/mL (≈ 0.397 µM) | 0.2 micrograms/ml | – | – | – | – | – | – | – | – |
| O=C(Nc1cccc(COc2ccccc2)c1)c1cc(C(=O)c2cccc3ccccc23)ccc1O [NA1_3BnOP] | > 50 µg/mL | 6.3 µg/mL (≈ 13.3 µM) | > 50 µg/mL | > 50 µg/mL | 3.1 µg/mL (≈ 6.55 µM) | 3.1 micrograms/ml | – | – | – | – | – | – | – | – |
| O=C(Nc1cccc(Oc2ccccc2)c1)c1cc(C(=O)c2cccc3ccccc23)ccc1O [NA1mOPh] | – | – | – | – | – | NE (NE indicates that the drug was not effective at a concentration >50 micrograms/ml) | NE (NE indicates that the drug was not effective at a concentration >50 micrograms/ml) | NE (NE indicates that the drug was not effective at a concentration >50 micrograms/ml) | NE (NE indicates that the drug was not effective at a concentration >50 micrograms/ml) | NE (NE indicates that the drug was not effective at a concentration >50 micrograms/ml) | NE (NE indicates that the drug was not effective at a concentration >50 micrograms/ml) | – | – | – |
| O=C(Nc1ccccc1)c1cc(C(=O)c2cccc3ccccc23)ccc1O [NA1, 2-Hydroxy-5-(naphthalene-1-carbonyl)-N-phenyl-benzamide] | 25 µg/mL (≈ 68 µM) | 3.1 µg/mL (≈ 8.44 µM) | 50 µg/mL (≈ 136 µM) | 50 µg/mL (≈ 136 µM) | 1.6 µg/mL (≈ 4.35 µM) | 1.6 micrograms/ml | – | – | – | – | – | > 50 µg/mL | > 50 µg/mL | > 50 µg/mL |
| COc1cc(NC(=O)c2cc(C(=O)c3cccc4ccccc34)ccc2O)cc(OC)c1 [NA1-2mOMe] | – | – | – | – | – | NE (NE indicates that the drug was not effective at a concentration >50 micrograms/ml) | NE (NE indicates that the drug was not effective at a concentration >50 micrograms/ml) | NE (NE indicates that the drug was not effective at a concentration >50 micrograms/ml) | NE (NE indicates that the drug was not effective at a concentration >50 micrograms/ml) | NE (NE indicates that the drug was not effective at a concentration >50 micrograms/ml) | NE (NE indicates that the drug was not effective at a concentration >50 micrograms/ml) | – | – | – |
| N#Cc1ccc(NC(=O)c2cc(C(=O)c3cccc4ccccc34)ccc2O)c2ccccc12 [NA1NpC] | – | – | – | – | – | 0.2 micrograms/ml | 0.4 micrograms/ml | 0.8 micrograms/ml | NE (NE indicates that the drug was not effective at a concentration >50 micrograms/ml) | NE (NE indicates that the drug was not effective at a concentration >50 micrograms/ml) | 0.2 micrograms/ml | – | – | – |
| O=C(c1ccccc1)c1ccc(NC(=O)c2cc(C(=O)c3cccc4ccccc34)ccc2O)cc1 [NA1pBz] | – | – | – | – | – | NE (NE indicates that the drug was not effective at a concentration >50 micrograms/ml) | NE (NE indicates that the drug was not effective at a concentration >50 micrograms/ml) | NE (NE indicates that the drug was not effective at a concentration >50 micrograms/ml) | NE (NE indicates that the drug was not effective at a concentration >50 micrograms/ml) | NE (NE indicates that the drug was not effective at a concentration >50 micrograms/ml) | NE (NE indicates that the drug was not effective at a concentration >50 micrograms/ml) | – | – | – |
| O=C(Nc1cccc(C(F)(F)F)c1)c1cc(C(=O)c2c(O)ccc3ccccc23)ccc1O [NA1OHmF] | 3.1 µg/mL (≈ 6.87 µM) | 0.8 µg/mL (≈ 1.77 µM) | > 50 µg/mL | 6.3 µg/mL (≈ 14 µM) | 0.8 µg/mL (≈ 1.77 µM) | 0.8 micrograms/ml | – | – | – | – | – | – | – | – |
